The experiment deals with bone resorption (pit formation) by bone cell containing osteoclasts. Kind of experiment: Pit formation assay (bone resorption inhibiting activity; absorption cavities on ivory pieces). It is filed as cell-based, ICR mice. Conditions: for No. of pits (Mean ± SD): control 328.0 ± 51.0; for IC50 / inhibition at 10 µM / inhibition at 1 µM / inhibition at 0.1 µM / inhibition at 0.01 µM / inhibition at 0.001 µM / inhibition at 0.0001 µM / inhibition at 10 pM: Mus musculus, Osteoclast; for IC50: read-out: 50% inhibitory (ID50) value. Here is the method: From 10 to 11-day old ICR mice (purchased from Charles River Inc.) were extracted femur and shank, which were then chopped using scissors in a-MEM medium (purchased from Flow Laboratories Inc.) containing 5% FBS (purchased from Irving Scientific Inc.), 100 U/ml penicillin and 100 μg/ml streptomycin. And further, the resulting supernatant was recovered by pipetting, washed with the medium and then suspended in 5% FBS, a-MEM medium to form bone cell containing osteoclasts. The bone cell suspension thus prepared was incubated in the medium containing rat parathyroid hormone for one week. After completion of the incubation, the cells were recovered using 0.05% trypsin EDTA-PBS and applied to pit formation assay.
An ivory piece was cut to a thickness of 150 μm using a precision low speed cutter (purchased from Buehler GmbH) and then round pieces with a diameter of 6 mm were cut out using a one-hole punch. These ivory pieces were immersed in 70% ethanol, subjected to sonication twice for each 5 minutes and then washed three times with sterile PBS and twice with the medium. These ivory pieces were placed in a 96-well culture plate (purchased from Falcon Inc.) and 100 µl of the medium containing medicaments at various concentrations was added. Then, 100 μl of the media containing the above prepared bone cells 1×10^5 was added to each well. Incubation was carried out at 37° C. in a 10% CO2 incubator for 2 days. After completion of the incubation, the cell over the ivory piece was removed, absorption cavities were stained with Coomassie Brilliant Blue and the number of the absorption cavities thus formed was counted under microscope.
Organosynthetic humulone was prepared according to Obara, H. et al., Bull. Chem. Soc. Jpn., vol.62, p.3034-3035 (1989). Bone resorption inhibiting activities of the organosynthetic humulone thus obtained and α acids obtained in example 1 were determined by means of the assay as described in (2) of example 2.
Bone resorption inhibiting activities of the native humulone thus obtained in Example 4 and the organosynthetic humulone thus obtained in Example 3 were determined by means of the assay as described in (2) of example 2.

Read-outs that look alike come from different tables or passages of the source.

For `CC(C)=CCC1C(=O)C(C(=O)CC(C)C)=C(O)C(O)(CC=C(C)C)C1=O` (stereo not shown) [Organosynthetic humulone, humulone], for the setting “Example 5, dose 10^-5 M”, the “No. of pits (Mean ± SD)” value is recorded as 6.8 ± 5.3 and the inhibition (as a rule, the relative decrease from the control value, in per cent) at 10 µM stood at 97.9%. For the same molecule, for the setting “Example 5, dose 10^-6 M”, the “No. of pits (Mean ± SD)” value is 33.7 ± 20.2 and testing at 1 µM gave an inhibition of 89.7%. For the same molecule, where the note is “Example 5, dose 10^-7 M”, the “No. of pits (Mean ± SD)” value is 70.7 ± 9.3 and the inhibition at 0.1 µM was found to be 78.4%. Where the note is “Example 5, dose 10^-8 M”, the “No. of pits (Mean ± SD)” value was 217.0 ± 89.1 and the inhibition at 0.01 µM was determined as 33.8%. Besides, for the setting “Example 5, dose 10^-9 M”, the “No. of pits (Mean ± SD)” value is 221.8 ± 88.3 and testing at 0.001 µM gave an inhibition of 32.4%. In addition, where the note is “Example 5, dose 10^-10 M”, the “No. of pits (Mean ± SD)” value was 221.3 ± 54.1 and testing at 0.0001 µM gave an inhibition of 32.5%. Also, for the setting “Example 5, dose 10^-11 M”, the “No. of pits (Mean ± SD)” value is given as 281.3 ± 38.1 and 10 pM produced 14.2% inhibition. Also, the IC50 (Example 3, organosynthetic humulone and α acids of example 1) amounted to 130 nM. Moreover, the IC50 (Example 5) was 26 nM.

Regarding `CC(C)=CCC1=C(O)C(C(=O)CC(C)C)=C(O)C(O)(CC=C(C)C)C1=O` (single isomer, unassigned) [Native humulone, humulone], under “Example 5, dose 10^-5 M”, the “No. of pits (Mean ± SD)” value stood at 0.3 ± 0.5 and testing at 10 µM gave an inhibition of 99.9%. Under “Example 5, dose 10^-6 M”, the “No. of pits (Mean ± SD)” value came out at 6.5 ± 3.8 and 1 µM produced 98% inhibition. Further, under “Example 5, dose 10^-7 M”, the “No. of pits (Mean ± SD)” value is listed as 34.5 ± 7.4 and 0.1 µM produced 89.5% inhibition. Moreover, where the note is “Example 5, dose 10^-8 M”, the “No. of pits (Mean ± SD)” value was found to be 128.5 ± 23.1 and the inhibition at 0.01 µM came out at 60.8%. Under “Example 5, dose 10^-9 M”, the “No. of pits (Mean ± SD)” value turned out to be 251.5 ± 135.4 and the inhibition at 0.001 µM was determined as 23.3%. For the same molecule, where the note is “Example 5, dose 10^-10 M”, the “No. of pits (Mean ± SD)” value is recorded as 274.3 ± 54.9 and the inhibition at 0.0001 µM was 16.4%. Where the note is “Example 5, dose 10^-11 M”, the “No. of pits (Mean ± SD)” value is reported as 274.3 ± 91.6 and 10 pM produced 16.4% inhibition. Also, under “Example 5”, the IC50 is 5.9 nM.

The values above are taken from patent US5604263A, “Treating osteoporosis with humulones” (Hoechst Japan Limited, priority 1994, dated 1997).
